Measurements from EP4745137A1 (Gluetacs Therapeutics (Shanghai) Co., Ltd., priority 2023, dated 2025).
Read-outs that look alike come from different tables or passages of the source.

Legend:
IKZF2 = target: T1, IKZF2 (Homo sapiens, UniProt Q96SW2+Q9UKS7); experiment: Western-blot assay of substrate protein degradation in hPBMCs, IKZF2; assay type: cell-based; settings: 24 hours of compound treatment, compounds tested at 50 nM and 500 nM (concentration of the table not stated)
T1 construct: endogenous in cells; host or cells: hPBMCs (Milecell Biotechnologies)
T1 sequence (Q9UKS7 whole entry): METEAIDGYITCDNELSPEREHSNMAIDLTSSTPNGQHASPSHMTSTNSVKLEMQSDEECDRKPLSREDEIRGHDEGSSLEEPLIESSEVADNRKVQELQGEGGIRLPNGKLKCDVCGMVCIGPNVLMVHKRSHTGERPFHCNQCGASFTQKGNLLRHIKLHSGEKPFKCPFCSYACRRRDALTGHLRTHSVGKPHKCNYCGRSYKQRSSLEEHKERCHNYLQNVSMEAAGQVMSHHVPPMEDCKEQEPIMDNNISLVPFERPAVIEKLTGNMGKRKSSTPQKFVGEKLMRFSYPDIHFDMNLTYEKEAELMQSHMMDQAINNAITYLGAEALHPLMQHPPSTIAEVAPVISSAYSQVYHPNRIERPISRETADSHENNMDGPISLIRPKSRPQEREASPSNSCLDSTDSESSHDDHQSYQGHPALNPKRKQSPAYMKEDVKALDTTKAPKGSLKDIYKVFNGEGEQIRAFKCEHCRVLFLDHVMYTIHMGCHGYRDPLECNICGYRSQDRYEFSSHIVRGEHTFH
T1 sequence (Q96SW2 whole entry): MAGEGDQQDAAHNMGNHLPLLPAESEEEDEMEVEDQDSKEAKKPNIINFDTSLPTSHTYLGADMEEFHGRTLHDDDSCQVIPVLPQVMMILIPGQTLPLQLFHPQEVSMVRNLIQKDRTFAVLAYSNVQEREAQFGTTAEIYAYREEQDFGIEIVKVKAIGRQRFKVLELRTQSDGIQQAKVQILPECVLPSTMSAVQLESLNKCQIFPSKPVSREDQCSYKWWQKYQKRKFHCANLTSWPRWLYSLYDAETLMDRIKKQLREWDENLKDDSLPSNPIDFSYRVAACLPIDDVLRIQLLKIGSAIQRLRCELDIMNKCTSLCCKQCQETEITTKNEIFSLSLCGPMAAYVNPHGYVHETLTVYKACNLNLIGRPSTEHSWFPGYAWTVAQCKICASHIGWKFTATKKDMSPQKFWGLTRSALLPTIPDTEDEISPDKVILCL
T1 sequence (Q16531 whole entry partner): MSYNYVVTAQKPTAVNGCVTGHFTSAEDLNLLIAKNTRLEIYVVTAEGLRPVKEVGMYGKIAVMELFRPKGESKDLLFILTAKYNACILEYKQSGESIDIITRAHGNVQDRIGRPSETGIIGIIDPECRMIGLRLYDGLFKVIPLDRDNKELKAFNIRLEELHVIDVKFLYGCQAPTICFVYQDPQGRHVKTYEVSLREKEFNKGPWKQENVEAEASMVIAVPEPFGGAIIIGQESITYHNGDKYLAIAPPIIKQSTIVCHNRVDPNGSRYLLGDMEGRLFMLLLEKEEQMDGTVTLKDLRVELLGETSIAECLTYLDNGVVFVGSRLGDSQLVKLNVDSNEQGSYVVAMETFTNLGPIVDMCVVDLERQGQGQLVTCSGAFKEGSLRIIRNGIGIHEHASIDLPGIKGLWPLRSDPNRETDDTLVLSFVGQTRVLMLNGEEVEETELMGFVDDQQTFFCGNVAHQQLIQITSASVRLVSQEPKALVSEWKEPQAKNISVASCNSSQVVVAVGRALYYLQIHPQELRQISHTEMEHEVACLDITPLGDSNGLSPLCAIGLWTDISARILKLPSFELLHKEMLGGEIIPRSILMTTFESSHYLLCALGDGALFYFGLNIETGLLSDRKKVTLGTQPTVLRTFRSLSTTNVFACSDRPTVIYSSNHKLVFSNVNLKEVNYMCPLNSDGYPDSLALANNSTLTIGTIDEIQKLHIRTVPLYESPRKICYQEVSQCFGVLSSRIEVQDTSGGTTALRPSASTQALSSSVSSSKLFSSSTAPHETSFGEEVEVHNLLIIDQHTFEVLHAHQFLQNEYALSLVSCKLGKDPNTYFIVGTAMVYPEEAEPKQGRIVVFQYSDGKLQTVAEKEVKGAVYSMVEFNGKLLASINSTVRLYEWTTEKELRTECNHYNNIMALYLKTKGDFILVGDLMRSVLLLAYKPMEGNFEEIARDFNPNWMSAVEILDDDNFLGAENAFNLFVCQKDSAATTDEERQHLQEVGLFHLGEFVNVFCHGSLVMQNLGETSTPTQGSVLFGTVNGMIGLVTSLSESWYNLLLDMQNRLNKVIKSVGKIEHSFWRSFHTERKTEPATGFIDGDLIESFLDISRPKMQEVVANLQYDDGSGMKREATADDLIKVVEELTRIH

[1] = test system: Human acute T lymphocytic leukemia cells (Molt-4); experiment: Tumor cell proliferation inhibition (CellTiter-Meiluncell Luminescent Cell Viability Assay), Molt-4; settings: MOLT-4, 96 h, read-out: inhibitory activity (IC50, nM) against tumor cells proliferation, Molt 4
NCI-H1975 = experiment: Tumor cell proliferation inhibition (CellTiter-Meiluncell Luminescent Cell Viability Assay), NCI-H1975; settings: Homo sapiens, NCI-H1975, 96 h, read-out: inhibitory activity (IC50, nM) against tumor cells proliferation, H1975
[2] = test system: Human breast cancer cells (MDA-MB-231); experiment: Tumor cell proliferation inhibition (CellTiter-Meiluncell Luminescent Cell Viability Assay), MDA-MB-231; settings: MDA-MB-231, 96 h, read-out: inhibitory activity (IC50, nM) against tumor cells proliferation, MDA-MB-231
GSPT1 = target: T2, GSPT1 (Homo sapiens, UniProt P15170+Q96SW2); experiment: Western-blot assay of substrate protein degradation in hPBMCs, GSPT1; assay type: cell-based; settings: 24 hours of compound treatment, compounds tested at 50 nM and 500 nM (concentration of the table not stated)
T2 construct: endogenous in cells; host or cells: hPBMCs (Milecell Biotechnologies)
T2 sequence (P15170 whole entry): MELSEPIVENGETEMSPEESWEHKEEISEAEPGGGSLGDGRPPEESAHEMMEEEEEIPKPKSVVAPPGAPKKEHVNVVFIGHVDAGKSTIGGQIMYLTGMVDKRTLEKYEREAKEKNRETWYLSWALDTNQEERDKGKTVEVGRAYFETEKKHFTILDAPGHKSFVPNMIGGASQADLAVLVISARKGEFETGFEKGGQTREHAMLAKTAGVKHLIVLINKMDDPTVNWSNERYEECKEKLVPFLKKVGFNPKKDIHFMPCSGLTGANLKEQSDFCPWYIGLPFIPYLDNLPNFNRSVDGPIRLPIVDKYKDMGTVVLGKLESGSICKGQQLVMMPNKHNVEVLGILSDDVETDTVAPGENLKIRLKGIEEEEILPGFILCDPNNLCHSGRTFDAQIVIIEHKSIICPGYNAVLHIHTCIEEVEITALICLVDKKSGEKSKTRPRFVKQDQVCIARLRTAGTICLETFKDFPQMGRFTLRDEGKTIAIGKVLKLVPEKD
T2 sequence (Q96SW2 whole entry): as the sequence (Q96SW2 whole entry) above
T2 sequence (Q16531 whole entry partner): as the sequence (Q16531 whole entry partner) above

SR = experiment: Tumor cell proliferation inhibition (CellTiter-Meiluncell Luminescent Cell Viability Assay), SR; settings: Homo sapiens, 96 h, read-out: inhibitory activity (IC50, nM) against tumor cells proliferation, SR
SW620 = experiment: Tumor cell proliferation inhibition (CellTiter-Meiluncell Luminescent Cell Viability Assay), SW620; settings: Homo sapiens, SW-620, 96 h, read-out: inhibitory activity (IC50, nM) against tumor cells proliferation, SW620
CCRF-CEM = experiment: Tumor cell proliferation inhibition (CellTiter-Meiluncell Luminescent Cell Viability Assay), CCRF-CEM; settings: Homo sapiens, 96 h, read-out: inhibitory activity (IC50, nM) against tumor cells proliferation, CCRF-CEM
IKZF1 = target: T3, IKZF1 (Homo sapiens, UniProt Q13422+Q96SW2); experiment: Western-blot assay of substrate protein degradation in hPBMCs, IKZF1; assay type: cell-based; settings: 24 hours of compound treatment, compounds tested at 50 nM and 500 nM (concentration of the table not stated)
T3 construct: endogenous in cells; host or cells: hPBMCs (Milecell Biotechnologies)

CK1α = target: T4, CK1α (Homo sapiens, UniProt P48729+Q96SW2); experiment: Western-blot assay of substrate protein degradation in hPBMCs, CK1α; assay type: cell-based; settings: 24 hours of compound treatment, compounds tested at 50 nM and 500 nM (concentration of the table not stated)
T4 construct: endogenous in cells; host or cells: hPBMCs (Milecell Biotechnologies)
T4 sequence (P48729 whole entry): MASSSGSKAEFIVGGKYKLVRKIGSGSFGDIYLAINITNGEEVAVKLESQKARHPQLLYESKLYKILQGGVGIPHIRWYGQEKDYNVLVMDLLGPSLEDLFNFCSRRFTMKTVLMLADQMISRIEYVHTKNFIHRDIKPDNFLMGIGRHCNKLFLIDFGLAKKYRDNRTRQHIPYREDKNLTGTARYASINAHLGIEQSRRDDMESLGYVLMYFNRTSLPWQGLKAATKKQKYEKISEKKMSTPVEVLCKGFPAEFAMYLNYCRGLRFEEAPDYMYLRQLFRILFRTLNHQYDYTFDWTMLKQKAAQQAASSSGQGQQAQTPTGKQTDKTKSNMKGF
T4 sequence (Q96SW2 whole entry): as the sequence (Q96SW2 whole entry) above
T4 sequence (Q16531 whole entry partner): as the sequence (Q16531 whole entry partner) above

CAL-62 = experiment: Tumor cell proliferation inhibition (CellTiter-Meiluncell Luminescent Cell Viability Assay), CAL-62; settings: Homo sapiens, CAL-62, 96 h, read-out: inhibitory activity (IC50, nM) against tumor cells proliferation, CAL-62
[3] = target: T5, human Cereblon WT GST-tagged protein (Homo sapiens, UniProt Q96SW2); experiment: CRBN-binding affinity by HTRF (CEREBLON BINDING kit)
T5 construct: purchased CISBIO 64BDCRBNPEH
T5 sequence (Q96SW2 whole entry): as the sequence (Q96SW2 whole entry) above

Jurkat = experiment: Tumor cell proliferation inhibition (CellTiter-Meiluncell Luminescent Cell Viability Assay), Jurkat; settings: Homo sapiens, 96 h, read-out: inhibitory activity (IC50, nM) against tumor cells proliferation, Jurkat
Vcap = experiment: Tumor cell proliferation inhibition (CellTiter-Meiluncell Luminescent Cell Viability Assay), Vcap; settings: Homo sapiens, 96 h, read-out: inhibitory activity (IC50, nM) against tumor cells proliferation, Vcap
IKZF3 = target: T6, IKZF3 (Homo sapiens, UniProt Q96SW2+Q9UKT9); experiment: Western-blot assay of substrate protein degradation in hPBMCs, IKZF3; assay type: cell-based; settings: 24 hours of compound treatment, compounds tested at 50 nM and 500 nM (concentration of the table not stated)
T6 construct: endogenous in cells; host or cells: hPBMCs (Milecell Biotechnologies)
T6 sequence (Q9UKT9 whole entry): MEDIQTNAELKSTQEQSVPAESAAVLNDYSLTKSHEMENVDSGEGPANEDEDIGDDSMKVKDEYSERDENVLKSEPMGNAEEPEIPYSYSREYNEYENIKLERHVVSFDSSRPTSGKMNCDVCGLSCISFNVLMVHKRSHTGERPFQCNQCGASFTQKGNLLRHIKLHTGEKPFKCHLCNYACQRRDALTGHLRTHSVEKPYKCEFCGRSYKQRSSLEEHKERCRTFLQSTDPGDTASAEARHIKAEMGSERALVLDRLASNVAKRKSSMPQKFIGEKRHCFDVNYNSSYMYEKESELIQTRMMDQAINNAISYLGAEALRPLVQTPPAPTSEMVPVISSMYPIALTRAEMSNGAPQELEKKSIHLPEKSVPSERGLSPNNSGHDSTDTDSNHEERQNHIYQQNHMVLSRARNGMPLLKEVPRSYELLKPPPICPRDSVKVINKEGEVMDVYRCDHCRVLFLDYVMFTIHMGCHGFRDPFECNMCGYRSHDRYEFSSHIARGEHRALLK
T6 sequence (Q96SW2 whole entry): as the sequence (Q96SW2 whole entry) above
T6 sequence (Q16531 whole entry partner): as the sequence (Q16531 whole entry partner) above

MM.1R = experiment: Tumor cell proliferation inhibition (CellTiter-Meiluncell Luminescent Cell Viability Assay), MM.1R; settings: Homo sapiens, 96 h, read-out: inhibitory activity (IC50, nM) against tumor cells proliferation, MM.1R
WEE1 = target: T7, WEE1 (Homo sapiens, UniProt P30291+Q96SW2); experiment: Western-blot assay of substrate protein degradation in hPBMCs, WEE1; assay type: cell-based; settings: 24 hours of compound treatment, compounds tested at 50 nM and 500 nM (concentration of the table not stated)
T7 construct: endogenous in cells; host or cells: hPBMCs (Milecell Biotechnologies)
T7 sequence (P30291 whole entry): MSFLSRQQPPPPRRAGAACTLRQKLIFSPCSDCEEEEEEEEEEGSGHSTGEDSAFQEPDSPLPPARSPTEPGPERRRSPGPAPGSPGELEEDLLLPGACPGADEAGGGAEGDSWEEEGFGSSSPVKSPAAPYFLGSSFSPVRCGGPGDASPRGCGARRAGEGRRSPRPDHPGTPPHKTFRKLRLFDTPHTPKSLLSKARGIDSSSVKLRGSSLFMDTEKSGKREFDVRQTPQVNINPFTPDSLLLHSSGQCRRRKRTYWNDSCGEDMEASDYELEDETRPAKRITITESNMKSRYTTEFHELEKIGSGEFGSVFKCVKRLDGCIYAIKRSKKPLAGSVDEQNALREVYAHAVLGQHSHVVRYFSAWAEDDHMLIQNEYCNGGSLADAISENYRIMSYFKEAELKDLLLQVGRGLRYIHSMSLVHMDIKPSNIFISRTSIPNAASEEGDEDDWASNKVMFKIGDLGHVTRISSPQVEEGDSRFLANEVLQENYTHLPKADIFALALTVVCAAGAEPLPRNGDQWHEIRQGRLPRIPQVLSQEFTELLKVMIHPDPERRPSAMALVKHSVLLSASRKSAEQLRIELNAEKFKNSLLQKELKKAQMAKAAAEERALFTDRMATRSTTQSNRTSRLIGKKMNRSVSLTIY
T7 sequence (Q96SW2 whole entry): as the sequence (Q96SW2 whole entry) above
T7 sequence (Q16531 whole entry partner): as the sequence (Q16531 whole entry partner) above

MGC803 = experiment: Tumor cell proliferation inhibition (CellTiter-Meiluncell Luminescent Cell Viability Assay), MGC803; settings: Homo sapiens, MGC-803, 96 h, read-out: inhibitory activity (IC50, nM) against tumor cells proliferation, MGC803
[4] = HTRF inhibitory activity, CEREBLON BINDING kit; read-out: HTRF IC50

O=C1CCC(N2Cc3cc(CN4CCN(c5ccc(Br)cc5)CC4)ccc3C2=O)C(=O)N1 (centres unmarked)
IKZF2 substrate protein remaining % (IKZF2): B (80%< substrate protein remaining %≤ 100%) | IC50 [1]: 5 to 10 nM | IC50 (NCI-H1975): 100 to 500 nM | IC50 [2]: 100 to 500 nM | GSPT1 substrate protein remaining % (GSPT1): A (0% ≤ substrate protein remaining % ≤ 80%) | IC50 (SR): 100 to 500 nM | IC50 (SW620): 100 to 500 nM | IC50 (CCRF-CEM): 5 to 10 nM | IKZF 1 substrate protein remaining % (IKZF1): B (80%< substrate protein remaining %≤ 100%) | CK1a substrate protein remaining % (CK1α): A (0% ≤ substrate protein remaining % ≤ 80%) | IC50 (CAL-62): 10 to 50 nM | IC50 ([3]; read-out: HTRF IC50; HTRF inhibitory activity, CEREBLON BINDING kit): 500 to 1000 nM | IC50 (Jurkat): 1 to 5 nM | IC50 (Vcap): 10 to 50 nM | IKZF3 substrate protein remaining % (IKZF3): B (80%< substrate protein remaining %≤ 100%) | IC50 (MM.1R): 5 to 10 nM | Weel substrate protein remaining % (WEE1): B (80%< substrate protein remaining %≤ 100%) | IC50 (MGC803): 100 to 500 nM

O=C1CCC(N2Cc3cc(CN4CCN(c5ccc(Cl)cn5)CC4)ccc3C2=O)C(=O)N1 (centres unmarked) [GT-04431, 3-(5-((4-(5-chloropyridin-2-yl)piperazin-1-yl)methyl)-1-oxoisoindolin-2-yl)piperidine-2,6-dione]
IKZF2 substrate protein remaining % (IKZF2): A (0% ≤ substrate protein remaining % ≤ 80%) | IC50 [1]: 10 to 50 nM | IC50 (NCI-H1975): 50 to 100 nM | IC50 [2]: 50 to 100 nM | GSPT1 substrate protein remaining % (GSPT1): A (0% ≤ substrate protein remaining % ≤ 80%) | IC50 (SR): 100 to 500 nM | IC50 (SW620): 50 to 100 nM | IC50 (CCRF-CEM): 1 to 5 nM | IKZF 1 substrate protein remaining % (IKZF1): A (0% ≤ substrate protein remaining % ≤ 80%) | CK1a substrate protein remaining % (CK1α): A (0% ≤ substrate protein remaining % ≤ 80%) | IC50 (CAL-62): 5 to 10 nM | IC50 [3, 4]: 500 to 1000 nM | IC50 (Jurkat): 1 to 5 nM | IC50 (Vcap): 10 to 50 nM | IKZF3 substrate protein remaining % (IKZF3): A (0% ≤ substrate protein remaining % ≤ 80%) | IC50 (MM.1R): 5 to 10 nM | Weel substrate protein remaining % (WEE1): A (0% ≤ substrate protein remaining % ≤ 80%) | IC50 (MGC803): 50 to 100 nM

O=C1CCC(N2Cc3cc(CN4CCN(c5ccc(Cl)c(Cl)c5)CC4)ccc3C2=O)C(=O)N1 (centres unmarked) [GT-04437, 3-(5-((4-(3,4-dichlorophenyl)piperazin-1-yl)methyl)-1-oxoisoindolin-2-yl)piperidine-2,6-dione]
IKZF2 substrate protein remaining % (IKZF2): A (0% ≤ substrate protein remaining % ≤ 80%) | IC50 [1]: 1 to 5 nM | IC50 (NCI-H1975): 50 to 100 nM | IC50 [2]: 100 to 500 nM | GSPT1 substrate protein remaining % (GSPT1): A (0% ≤ substrate protein remaining % ≤ 80%) | IC50 (SR): 100 to 500 nM | IC50 (SW620): 50 to 100 nM | IC50 (CCRF-CEM): 5 to 10 nM | IKZF 1 substrate protein remaining % (IKZF1): A (0% ≤ substrate protein remaining % ≤ 80%) | CK1a substrate protein remaining % (CK1α): A (0% ≤ substrate protein remaining % ≤ 80%) | IC50 (CAL-62): 10 to 50 nM | IC50 [3, 4]: 500 to 1000 nM | IC50 (Jurkat): 1 to 5 nM | IC50 (Vcap): 10 to 50 nM | IKZF3 substrate protein remaining % (IKZF3): A (0% ≤ substrate protein remaining % ≤ 80%) | IC50 (MM.1R): 5 to 10 nM | Weel substrate protein remaining % (WEE1): A (0% ≤ substrate protein remaining % ≤ 80%) | IC50 (MGC803): 50 to 100 nM

O=C1CCC(N2Cc3cc(CN4CCN(c5ccccc5)CC4)ccc3C2=O)C(=O)N1 (centres unmarked) [GT-04446, 3-(1-oxo-5-((4-phenylpiperazin-1-yl)methyl)isoindolin-2-yl)piperidine-2,6-dione]
IKZF2 substrate protein remaining % (IKZF2): A (0% ≤ substrate protein remaining % ≤ 80%) | IC50 [1]: 1 to 5 nM | IC50 (NCI-H1975): 50 to 100 nM | IC50 [2]: 100 to 500 nM | GSPT1 substrate protein remaining % (GSPT1): A (0% ≤ substrate protein remaining % ≤ 80%) | IC50 (SR): 100 to 500 nM | IC50 (SW620): 50 to 100 nM | IC50 (CCRF-CEM): 5 to 10 nM | IKZF 1 substrate protein remaining % (IKZF1): A (0% ≤ substrate protein remaining % ≤ 80%) | CK1a substrate protein remaining % (CK1α): A (0% ≤ substrate protein remaining % ≤ 80%) | IC50 (CAL-62): 5 to 10 nM | IC50 [3, 4]: 500 to 1000 nM | IC50 (Jurkat): 1 to 5 nM | IC50 (Vcap): 10 to 50 nM | IKZF3 substrate protein remaining % (IKZF3): A (0% ≤ substrate protein remaining % ≤ 80%) | IC50 (MM.1R): 5 to 10 nM | Weel substrate protein remaining % (WEE1): A (0% ≤ substrate protein remaining % ≤ 80%) | IC50 (MGC803): 100 to 500 nM

O=C1CCC(N2Cc3cc(CN4CCN(c5cccc(F)c5)CC4)ccc3C2=O)C(=O)N1 (centres unmarked) [GT-04452, 3-(5-((4-(3-fluorophenyl)piperazin-1-yl)methyl)-1-oxoisoindolin-2-yl)piperidine-2,6-dione]
IKZF2 substrate protein remaining % (IKZF2): B (80%< substrate protein remaining %≤ 100%) | IC50 [1]: 5 to 10 nM | IC50 (NCI-H1975): 100 to 500 nM | IC50 [2]: 100 to 500 nM | GSPT1 substrate protein remaining % (GSPT1): A (0% ≤ substrate protein remaining % ≤ 80%) | IC50 (SR): 100 to 500 nM | IC50 (SW620): 100 to 500 nM | IC50 (CCRF-CEM): 5 to 10 nM | IKZF 1 substrate protein remaining % (IKZF1): B (80%< substrate protein remaining %≤ 100%) | CK1a substrate protein remaining % (CK1α): A (0% ≤ substrate protein remaining % ≤ 80%) | IC50 (CAL-62): 10 to 50 nM | IC50 [3, 4]: 500 to 1000 nM | IC50 (Jurkat): 5 to 10 nM | IC50 (Vcap): 10 to 50 nM | IKZF3 substrate protein remaining % (IKZF3): B (80%< substrate protein remaining %≤ 100%) | IC50 (MM.1R): 10 to 50 nM | Weel substrate protein remaining % (WEE1): A (0% ≤ substrate protein remaining % ≤ 80%) | IC50 (MGC803): 100 to 500 nM

O=C1CCC(N2Cc3cc(CN4CCC(c5cccc(C(F)(F)F)c5)CC4)ccc3C2=O)C(=O)N1 (centres unmarked) [GT-04472, 3-(1-oxo-5-((4-(3-(trifluoromethyl)phenyl)piperidin-1-yl)methyl)isoindolin-2-yl)piperidine-2,6-dione]
IKZF2 substrate protein remaining % (IKZF2): A (0% ≤ substrate protein remaining % ≤ 80%) | IC50 [1]: 1 to 5 nM | IC50 (NCI-H1975): 10 to 50 nM | GSPT1 substrate protein remaining % (GSPT1): A (0% ≤ substrate protein remaining % ≤ 80%) | IC50 (SR): 50 to 100 nM | IC50 (SW620): 10 to 50 nM | IC50 (CCRF-CEM): 1 to 5 nM | IKZF 1 substrate protein remaining % (IKZF1): A (0% ≤ substrate protein remaining % ≤ 80%) | CK1a substrate protein remaining % (CK1α): B (80%< substrate protein remaining %≤ 100%) | IC50 (CAL-62): 5 to 10 nM | IC50 [3, 4]: 500 to 1000 nM | IC50 (Jurkat): 1 to 5 nM | IC50 (Vcap): 10 to 50 nM | IKZF3 substrate protein remaining % (IKZF3): A (0% ≤ substrate protein remaining % ≤ 80%) | IC50 (MM.1R): 1 to 5 nM | Weel substrate protein remaining % (WEE1): A (0% ≤ substrate protein remaining % ≤ 80%) | IC50 (MGC803): 50 to 100 nM
